Several values for one entry are separate records, joined by “and”; a condition that tells them apart may be missing. Equal entries are not always repeated. Where a SMILES comes first, the peptide text is derived from it. [ ]: non-standard residue; d: D form. Hyp = O=C(O)[C@@H]1C[C@@H](O)CN1
System: CCL5/RANTES
Assay: Example 9 Luminex, LPS hPBMCs: CCL5/RANTES
Format: cell-based, human
Conditions: PBMC + LPS(5 ug/ml)
Protocol: Treatment Human PBMCs were pretreated with YY-101, YDE-011 and YDE-043 or reference compound; Xiidra® at various concentration (ranging from 1 nM to 100 uM) for 2 h before stimulation. An equal volume of 0.5% DMSO was used as a vehicle control. Then, the cells were treated with LPS at 5 ug/ml. The supernatants from treated cells were harvested at 24 h and placed in a 96 well for Luminex cytokine & chemokine profiling using a Luminex 200 multiplex assay (Luminex; R&D system, USA).
The main study arm with triplicate wells per group in a 24-well plate: • 1. Blank • 2. PBMC: 0.5% DMSO • 3. PBMC+LPS (5 ug/ml) • 4. PBMC+YY-101 100 uM • 5. PBMC+YY-101 10 uM • 6. PBMC+YY-101 1 uM • 7. PBMC+YY-101 0.1 uM • 8. PBMC+YY-101 0.01 uM • 9. PBMC+LPS (5 ug/ml)+Xiidra®100 uM • 10. PBMC+LPS (5 ug/ml)+Xiidra® 10 uM • 11. PBMC+LPS (5 ug/ml)+Xiidra® 1 uM • 12. PBMC+LPS (5 ug/ml)+Xiidra®0.1 uM • 13. PBMC+LPS (5 ug/ml)+Xiidra®0.01 uM • 14. PBMC+LPS (5 ug/ml)+Xiidra®0.001 uM • 15. PBMC+LPS (5 ug/ml)+YY-101 100 uM • 16. PBMC+LPS (5 ug/ml)+YY-101 10 uM • 17. PBMC+LPS (5 ug/ml)+YY-101 1 uM • 18. PBMC+LPS (5 ug/ml)+YY-101 0.1 uM • 19. PBMC+LPS (5 ug/ml)+YY-101 0.01 uM • 20. PBMC+LPS (5 ug/ml)+YY-101 0.001 uM • 21. PBMC+LPS (5 ug/ml)+YDE-011 100 uM • 22. PBMC+LPS (5 ug/ml)+YDE-011 10 uM • 23. PBMC+LPS (5 ug/ml)+YDE-011 1 uM • 24. PBMC+LPS (5 ug/ml)+YDE-011 0.1 uM • 25. PBMC+LPS (5 ug/ml)+YDE-011 0.01 uM • 26. PBMC+LPS (5 ug/ml)+YDE-011 0.001 uM • 27. PBMC+LPS (5 ug/ml)+YDE-043 100 uM • 28. PBMC+LPS (5 ug/ml)+YDE-043 10 uM • 29. PBMC+LPS (5 ug/ml)+YDE-043 1 uM • 30. PBMC+LPS (5 ug/ml)+YDE-043 0.1 uM • 31. PBMC+LPS (5 ug/ml)+YDE-043 0.01 uM • 32. PBMC+LPS (5 ug/ml)+YDE-043 0.001 uM
Multiplex assay was used to measure 30 cytokines and chemokines. The 1:2, 1:10 and 1:200 diluted cell supernatant and serial dilution of the standard were dispensed into a 96 well plate at 50 ul/well. Then, the pre-mixed cocktail of antibody-coated magnetic beads was dispensed at 50 ul/well and incubated at room temperature for 2 h in a horizontal orbital microplate shaker at 800±500 rpm. The beads were washed using a magnetic device to prevent loss. The biotin-antibody was dispensed in 50 ul of each well and incubated at room temperature for 1 h in a shaker at 800±500 rpm. After washing, streptavidin-PE was added at 50 ul/well and incubated at room temperature for 30 min in a shaker under the same conditions. Finally, after washing, wash buffer (100 ul/well) was added to the plate and incubated in a shaker for 2 min. The Luminex™ 200 setting were set according to the manufacturer's protocol. The data was calculated with a standard five-parameter logistic nonlinear regression analysis of the data (xPonent software 4.2, USA). The levels of cytokine/chemokine are normalized to the live cell counts (1×10^5 cells/mL) and presented as concentrations per mL (pg/mL or ng/mL).

[1] = test article 0.001 uM, single replicates (1st, 2nd, 3rd)
[2] = test article 0.01 uM, single replicates (1st, 2nd, 3rd)
[3] = test article 0.1 uM, single replicates (1st, 2nd, 3rd)
[4] = test article 1 uM, single replicates (1st, 2nd, 3rd)
[5] = test article 10 uM, single replicates (1st, 2nd, 3rd)
[6] = test article 100 uM, single replicates (1st, 2nd, 3rd)

Structure (SMILES)	Concentration (CCL5/RANTES) (test article 0.001 uM, Mean) [pg/mL]	MFI (Bead name: CCL5/RANTES) (test article 0.001 uM, Mean)	conc/live cell (CCL5/RANTES) (test article 0.001 uM, Mean) [pg/10^5]	Concentration (CCL5/RANTES) [1]	MFI (Bead name: CCL5/RANTES) [1]	conc/live cell (CCL5/RANTES) [1]	Concentration (CCL5/RANTES) (test article 0.01 uM, Mean) [pg/mL]	MFI (Bead name: CCL5/RANTES) (test article 0.01 uM, Mean)	conc/live cell (CCL5/RANTES) (test article 0.01 uM, Mean) [pg/10^5]	Concentration (CCL5/RANTES) [2]	MFI (Bead name: CCL5/RANTES) [2]	conc/live cell (CCL5/RANTES) [2]	Concentration (CCL5/RANTES) (test article 0.1 uM, Mean) [pg/mL]	MFI (Bead name: CCL5/RANTES) (test article 0.1 uM, Mean)	conc/live cell (CCL5/RANTES) (test article 0.1 uM, Mean) [pg/10^5]	Concentration (CCL5/RANTES) [3]	MFI (Bead name: CCL5/RANTES) [3]	conc/live cell (CCL5/RANTES) [3]	Concentration (CCL5/RANTES) (test article 1 uM, Mean) [pg/mL]	MFI (Bead name: CCL5/RANTES) (test article 1 uM, Mean)	further results
CC(C)C[C@H](NC(=O)CNC(=O)[C@H](CC(C)C)NC(=O)[C@H](CCC(N)=O)NC(=O)CNC(=O)[C@@H]1C[C@@H](O)CN1)C(=O)N[C@@H](C)C(=O)NCC(=O)N1CCC[C@H]1C(=O)N[C@@H](CCCCN)C(=O)O [YDE-011] (H-[Hyp]GQLGLAGPK-OH)	209.7	477.2	39.5	202.5 pg/ml (2×) and 224.1 pg/ml	455.5 (2×) and 520.5	45.0 pg/10^5 and 34.9 pg/10^5 and 38.6 pg/10^5	215.3	494.0	37.1	216.5 pg/mL and 220.2 pg/mL and 209.4 pg/mL	497.5 and 508.5 and 476.0	34.9 pg/10^5 and 43.2 pg/10^5 and 33.2 pg/10^5	207.0	468.8	36.3	206.7 pg/mL and 205.2 pg/mL and 209.0 pg/mL	468.0 and 463.5 and 475.0	31.3 pg/10^5 and 41.0 pg/10^5 and 36.7 pg/10^5	199.8	447.5	conc/live cell (CCL5/RANTES) (test article 1 uM, Mean): 39.8 pg/10^5; Concentration (CCL5/RANTES) [4]: 205.5 pg/mL and 199.5 pg/mL and 194.4 pg/mL; MFI (Bead name: CCL5/RANTES) [4]: 464.5 and 446.5 and 431.5; conc/live cell (CCL5/RANTES) [4]: 37.4 pg/10^5 and 41.6 pg/10^5 and 40.5 pg/10^5; Concentration (CCL5/RANTES) (test article 10 uM, Mean): 204.9 pg/mL; MFI (Bead name: CCL5/RANTES) (test article 10 uM, Mean): 462.7; conc/live cell (CCL5/RANTES) (test article 10 uM, Mean): 38.9 pg/10^5; Concentration (CCL5/RANTES) [5]: 214.7 pg/mL and 201.8 pg/mL and 198.1 pg/mL; MFI (Bead name: CCL5/RANTES) [5]: 492.0 and 453.5 and 442.5; conc/live cell (CCL5/RANTES) [5]: 39.8 pg/10^5 and 34.8 pg/10^5 and 42.1 pg/10^5; Concentration (CCL5/RANTES) (test article 100 uM, Mean): 161.8 pg/mL; MFI (Bead name: CCL5/RANTES) (test article 100 uM, Mean): 338.5; conc/live cell (CCL5/RANTES) (test article 100 uM, Mean): 26.7 pg/10^5; Concentration (CCL5/RANTES) [6]: 170.4 pg/mL and 153.5 pg/mL and 161.5 pg/mL; MFI (Bead name: CCL5/RANTES) [6]: 362.5 and 315.5 and 337.5; conc/live cell (CCL5/RANTES) [6]: 27.9 pg/10^5 and 25.2 pg/10^5 and 26.9 pg/10^5
CC(C)C[C@H](NC(=O)[C@H](CCC(N)=O)NC(=O)CNC(=O)[C@@H]1C[C@@H](O)CN1)C(=O)NCC(=O)O [YDE-043] (H-[Hyp]GQLG-OH; N-terminus and C-terminus assumed)	207.1	469.3	42.0	199.1 pg/mL and 216.5 pg/mL and 205.7 pg/mL	445.5 and 497.5 and 465.0	45.3 pg/10^5 and 36.1 pg/10^5 and 44.7 pg/10^5	214.6	491.8	41.1	219.3 pg/mL and 212.9 pg/mL and 211.7 pg/mL	506.0 and 486.5 and 483.0	48.7 pg/10^5 and 32.3 pg/10^5 and 42.3 pg/10^5	215.9	495.8	40.1	220.2 pg/mL and 200.1 pg/mL and 227.4 pg/mL	508.5 and 448.5 and 530.5	44.0 pg/10^5 and 35.7 pg/10^5 and 40.6 pg/10^5	214.4	491.2	conc/live cell (CCL5/RANTES) (test article 1 uM, Mean): 40.7 pg/10^5; Concentration (CCL5/RANTES) [4]: 218.2 pg/mL and 212.9 pg/mL and 212.2 pg/mL; MFI (Bead name: CCL5/RANTES) [4]: 502.5 and 486.5 and 484.5; conc/live cell (CCL5/RANTES) [4]: 37.6 pg/10^5 and 44.3 pg/10^5 and 40.0 pg/10^5; Concentration (CCL5/RANTES) (test article 10 uM, Mean): 202.8 pg/mL; MFI (Bead name: CCL5/RANTES) (test article 10 uM, Mean): 456.5; conc/live cell (CCL5/RANTES) (test article 10 uM, Mean): 37.6 pg/10^5; Concentration (CCL5/RANTES) [5]: 212.9 pg/mL and 193.7 pg/mL and 201.8 pg/mL; MFI (Bead name: CCL5/RANTES) [5]: 486.5 and 429.5 and 453.5; conc/live cell (CCL5/RANTES) [5]: 40.9 pg/10^5 and 35.9 pg/10^5 and 36.0 pg/10^5; Concentration (CCL5/RANTES) (test article 100 uM, Mean): 163.0 pg/mL; MFI (Bead name: CCL5/RANTES) (test article 100 uM, Mean): 341.8; conc/live cell (CCL5/RANTES) (test article 100 uM, Mean): 25.9 pg/10^5; Concentration (CCL5/RANTES) [6]: 167.0 pg/mL and 159.0 pg/mL; MFI (Bead name: CCL5/RANTES) [6]: 353.0 and 330.5; conc/live cell (CCL5/RANTES) [6]: 26.9 pg/10^5 and 24.8 pg/10^5

From US20230146455A1, “TREATMENT OF INFLAMMATORY DISEASES WITH PEPTIDES AND PHARMACEUTICAL COMPOSITIONS” (Yuyu Pharma, Inc., priority 2020, published 2023)
